Source: ChEMBL document CHEMBL1154521, “2,3-Dihydrowithaferin A-3beta-O-sulfate, a new potential prodrug of withaferin A from aeroponically grown Withania somnifera” (2009)
Calls of active or inactive are those of the source. The calls are words filed in the database; no cut-off is given here.

Key:
WI-38 [1] = experiment: Induction of F-actin aggregation in human WI38 cells after 24 hrs; format: functional, cell-based
[2] = Growth inhibition of human NCI60 cells; format: functional
MCF7 [3] = experiment: Cytotoxicity against human MCF7 cells by MTT assay; format: functional
MCF7 [4] = experiment: Cytotoxicity against human MCF7 cells after 72 hrs by MTT assay; format: functional, cell-based
WI-38 [5] = experiment: Induction of F-actin aggregation in human WI38 cells after 4 hrs; format: functional, cell-based
[6] = molecular target: T1, Heat shock factor protein 1 (Mus musculus) (UniProt P38532); experiment: Induction of HSF1-mediated heat-shock protein 72 expression in mouse fibroblast with plasmid EGFP at 2 uM after overnight incubation by micro plate fluorometer
T1 sequence (whole entry): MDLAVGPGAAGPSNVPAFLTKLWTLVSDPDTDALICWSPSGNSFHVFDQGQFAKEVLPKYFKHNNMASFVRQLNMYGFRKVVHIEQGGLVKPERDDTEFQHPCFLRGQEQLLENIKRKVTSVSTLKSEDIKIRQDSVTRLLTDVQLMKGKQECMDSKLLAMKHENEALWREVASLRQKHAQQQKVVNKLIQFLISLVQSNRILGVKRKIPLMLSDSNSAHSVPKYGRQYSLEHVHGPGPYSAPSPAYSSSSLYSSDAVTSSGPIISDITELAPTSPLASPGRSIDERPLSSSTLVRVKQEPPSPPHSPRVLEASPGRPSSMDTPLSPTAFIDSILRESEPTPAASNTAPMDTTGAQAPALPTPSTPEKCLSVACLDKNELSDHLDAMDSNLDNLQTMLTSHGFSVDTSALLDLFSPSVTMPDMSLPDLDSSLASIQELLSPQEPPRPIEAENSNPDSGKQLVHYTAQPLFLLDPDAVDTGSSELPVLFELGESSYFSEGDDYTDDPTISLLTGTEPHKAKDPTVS

Row | SMILES | Activity (WI-38 [1]) | GI50 [2] | inhibition (INH) (MCF7 [3]) | Activity (MCF7 [4]) | Activity (WI-38 [5]) | Activity [6]
1 | CC1=C(CO)C(=O)O[C@@H]([C@@H](C)[C@H]2CC[C@H]3[C@@H]4C[C@H]5O[C@]56[C@@H](O)[C@@H](OS(=O)(=O)O)CC(=O)[C@]6(C)[C@H]4CC[C@]23C)C1 | inactive | – | – | – | – | –
2 | CC1=C(CO)C(=O)O[C@@H]([C@@H](C)[C@H]2CC[C@H]3[C@@H]4C[C@H]5O[C@]56[C@@H](O)C=CC(=O)[C@]6(C)[C@H]4CC[C@]23C)C1 [WITHAFERIN A] | – | 0.62 µM | 50% | Active | Active | Active
